Experimental data taken from US4957920A, “Benzimidazoles, and pharmaceutical preparations containing these compounds” (priority 1987, dated 1990).
Read-outs that look alike come from different tables or passages of the source.

What was measured:
[1] = test system: isolated, perfused guinea pig hearts; assay: Haemodynamic effects on isolated, perfused Langendorff hearts (guinea pigs); conditions: Cavia porcellus
Text: (§1) The benzimidazoles according to the invention corresponding to the general formula I combine good oral availability with interesting pharmacological properties, especially cardiovascular effects, in particular positive inotropic and blood pressure lowering effects. They show an excellent cardiotonic activity in numerous pharmacological standard models, for example in vitro in the isolated, perfused Langendorff heart or in vivo on narcotised guinea pigs, where they produce a marked increase in contractility.
1. Investigations on isolated, perfused Langendorff Hearts (guinea pigs)
The arrangement of Langendorff was modified according to P. R. Beckett (J. Pharm. Pharmacol. 22, 818 (1970)) and R. M. Abel and R. L. Reis (Circ. Res. 27, 961 (1970)) to determine the haemodynamic effects of the compounds according to the invention on isolated, perfused guinea pig hearts. The spontaneously beating guinea pig hearts were catheterised in the left ventricle and perfused with solutions of the test substances in physiological saline solution/ethanol (9:1) at concentrations of 10^-4 to 10^-8 mol/1 at a constant perfusion pressure of 60 mm Hg.

narcotised guinea pigs = assay: Haemodynamic characterisation on narcotised guinea pigs (in vivo model); set-up: species or system guinea pig; conditions: 10 μg/kg/min, infused through left jugular vein, under β-blockage (metoprolol 2 mg/kg i.m.)
Text: as §1
2. Haemodynamic Characterisation on Narcotised Guinea Pigs (in vivo model)
The animals were narcotised with urethane (1.5 g/kg). The trachea was cannulated for volume controlled respiration. The two carotid arteries were then exposed operatively. A Tip catheter (3F) was introduced through the right carotid artery and moved forwards through the ascending aorta into the left ventricle while the pressure was continuously recorded. Successful passage through the aortic valves is recognised by the typical left ventricular pressure curve. A thermistor probe (3F, F. Edwards) is pushed forwards into the aortic arch through the left carotid for thermodilution. The thermistor probe also has a lumen for the recording of arterial blood pressure. A catheter is passed through the right jugular vein to be placed in front of the right auricle for application of the cold injectate (0.2 ml of 0.9% NaCl, 15° C.). The ECG is recorded in the first shunt. All substances are dissolved in physiological saline solution and infused through the left jugular vein (infusion volume 0 02 ml/min). The drug is applied after haemodynamic stabilisation and under β-blockage (metoprolol 2 mg/kg i.m.). All circulatory parameters are continuously registered on a direct recorder. The pulse frequency is calculated from the ECG, the contractility (dp/dt) is calculated from the […] and the volumetric cardiac output per unit time is calculated from the thermodilution curve.

[2] = target: T1, phosphodiesterase type III obtained from ox heart (Bos taurus, UniProt A0A3Q1M1E8); assay: Inhibition of phosphodiesterase type III, Method A (Diederen and Weisenberger); assay type: biochemical; conditions: read-out: percentage inhibition of FDE-III activity; for inhibition at 10 µM: 10^-5 mol/l; for inhibition at 1 µM: 10^-6 mol/l; for inhibition at 0.1 µM: 10^-7 mol/l
T1 sequence (A0A3Q1M1E8 1-1126): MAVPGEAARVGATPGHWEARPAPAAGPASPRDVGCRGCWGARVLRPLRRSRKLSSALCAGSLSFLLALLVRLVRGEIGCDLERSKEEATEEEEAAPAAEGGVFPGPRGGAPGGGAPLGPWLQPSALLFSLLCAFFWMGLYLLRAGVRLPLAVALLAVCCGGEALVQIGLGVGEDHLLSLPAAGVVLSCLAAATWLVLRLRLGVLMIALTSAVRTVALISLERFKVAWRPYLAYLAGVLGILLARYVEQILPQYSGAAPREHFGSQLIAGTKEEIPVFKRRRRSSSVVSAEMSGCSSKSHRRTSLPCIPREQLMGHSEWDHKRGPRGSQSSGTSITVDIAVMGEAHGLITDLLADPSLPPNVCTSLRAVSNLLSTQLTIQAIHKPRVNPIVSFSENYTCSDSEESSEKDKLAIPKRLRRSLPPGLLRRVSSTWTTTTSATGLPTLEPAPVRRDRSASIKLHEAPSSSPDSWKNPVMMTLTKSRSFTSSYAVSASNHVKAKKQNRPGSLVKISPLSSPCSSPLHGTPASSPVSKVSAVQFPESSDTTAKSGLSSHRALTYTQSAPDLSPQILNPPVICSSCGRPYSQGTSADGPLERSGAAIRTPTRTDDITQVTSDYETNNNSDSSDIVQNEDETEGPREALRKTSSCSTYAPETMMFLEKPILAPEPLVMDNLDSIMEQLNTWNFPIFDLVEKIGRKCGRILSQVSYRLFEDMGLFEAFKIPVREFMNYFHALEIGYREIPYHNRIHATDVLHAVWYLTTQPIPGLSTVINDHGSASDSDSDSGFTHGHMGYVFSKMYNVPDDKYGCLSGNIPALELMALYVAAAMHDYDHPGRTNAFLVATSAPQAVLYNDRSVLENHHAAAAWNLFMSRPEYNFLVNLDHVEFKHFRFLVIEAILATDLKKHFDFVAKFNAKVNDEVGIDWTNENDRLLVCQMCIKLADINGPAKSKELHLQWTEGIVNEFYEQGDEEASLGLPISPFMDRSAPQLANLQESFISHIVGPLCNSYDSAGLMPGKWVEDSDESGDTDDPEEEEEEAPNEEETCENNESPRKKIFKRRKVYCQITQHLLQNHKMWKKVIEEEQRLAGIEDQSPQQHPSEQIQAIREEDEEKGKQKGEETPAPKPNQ
Procedure: (§2) The inhibitory action of the compounds according to the invention on phosphodiesterase was tested on phosphodiesterase type III obtained from ox heart (Sigma Chemie, BRD) by the methods of W. Diederen and H. Weisenberger (Arzneim.-Forschumg 31, 177 (1981)) (Method A) and of M. A. Appleman and W. L. Terasaki (Advances in Cyclic Nucleotide Research, volume 5, Raven Press, New York (1975), page 153) (Method B).

[3] = target: T1, phosphodiesterase type III obtained from ox heart; assay: Inhibition of phosphodiesterase type III, Method B (Appleman and Terasaki); assay type: biochemical; conditions: read-out: percentage inhibition of FDE-III activity; for inhibition at 100 µM: 10^-4 mol/l; for inhibition at 10 µM: 10^-5 mol/l; for inhibition at 1 µM: 10^-6 mol/l
Procedure: as §2

[4] = test system: phosphodiesterase type III; conditions: heart muscle cells; cited from earlier work
[5] = cited from earlier work
[6] = concentration range 10^-7 - 10^-5 mol/l, read-out: Maximum percentage changes compared with controls: Cardiac Frequency
[7] = concentration range 10^-7 - 10^-5 mol/l, read-out: Maximum percentage changes compared with controls: Contractility dp/dt
[8] = concentration range 10^-7 - 10^-5 mol/l, read-out: Maximum percentage changes compared with controls: Coronary Flow
[9] = due to the mechanisms of their action

| inhibition at 100 µM ([2]; 10^-4 mol/l) | inhibition at 10 µM [2] | inhibition at 1 µM [2] | inhibition at 0.1 µM [2] | inhibition at 100 µM [3] | inhibition at 10 µM [3] | inhibition at 1 µM [3] | inhibition at 0.1 µM ([3]; 10^-7 mol/l) | SMILES | Emax ([1]; concentration range 10^-8 - 10^-4 mol/l, read-out: Maximum percentage changes compared with controls: Cardiac Frequency) | Emax ([1]; concentration range 10^-8 - 10^-4 mol/l, read-out: Maximum percentage changes compared with controls: Contractility dp/dt) | Emax ([1]; concentration range 10^-8 - 10^-4 mol/l, read-out: Maximum percentage changes compared with controls: Coronary Flow) | Maximum percentage changes compared with initial values: Blood Pressure sys. (narcotised guinea pigs) | Maximum percentage changes compared with initial values: Cardiac Frequency (narcotised guinea pigs) | Maximum percentage changes compared with initial values: Contractility dp/dt (narcotised guinea pigs) | Emax [1, 6] | Emax [1, 7] | Emax [1, 8] | positive inotropic effect by inhibiting phosphodiesterases, in particular type III [4] | undesirable side effects ([5]; in vivo) | undesirable side effects [5, 9] |
| --- | --- | --- | --- | --- | --- | --- | --- | --- | --- | --- | --- | --- | --- | --- | --- | --- | --- | --- | --- | --- |
| 10% | 7% | 0% | 0% | 4% | 0% | 0% | 0% | CC1CC(=O)NN=C1c1ccc2[nH]c(CCCN)nc2c1 (centres unmarked) [Example 1] | 11% | 76% | 25% | -25% | +20% | +38% |  |  |  |  |  |  |
|  |  |  |  |  |  |  |  | CC1CC(=O)NN=C1c1ccc2[nH]c(CCCNC(=N)NCCCc3c[nH]cn3)nc2c1 (centres unmarked) [Example 6] |  |  |  | -15% | +17% | +97% | 20% | 161% | 52% |  |  |  |
|  | 30% | 15% | 7% | 57% | 19% | 5% |  | COc1ccc(-c2nc3ccc(C4=NNC(=O)CC4C)cc3[nH]2)cc1 (centres unmarked) [Pimobendane, reference compound] |  |  |  | -51% | +3% | +10% | 8% | 99% | 76% | positive inotropic effect | undesirable side effects due to the mechanisms of their action, such as thrombocytopaenia or gastrointestinal disturbances |  |
|  |  |  |  |  |  |  |  | Nc1cc(-c2ccncc2)c[nH]c1=O [amrinone] |  |  |  |  |  |  |  |  |  | positive inotropic effect |  | undesirable side effects due to the mechanisms of their action, such as thrombocytopaenia or gastrointestinal disturbances |
|  |  |  |  |  |  |  |  | Cc1[nH]c(=O)c(C#N)cc1-c1ccncc1 [milrinone] |  |  |  |  |  |  |  |  |  | positive inotropic effect |  | undesirable side effects due to the mechanisms of their action, such as thrombocytopaenia or gastrointestinal disturbances |
